Source: patent EP1198478B1, “SOMATOSTATIN ANALOGS AND THEIR USE FOR THE TREATMENT OF CANCER” (Dabur Research Foundation, priority 2000, dated 2002)
Values joined by “and” are separate entries in the source; they are usually repeats but may differ in a detail not shown here. Identical values can stand only once.

Columns and labels:
[1] = tested on: PTC (primary human colon cancer cell line); assay: MTT cytotoxicity assay, PTC cells; format: cell-based; conditions: 48 hours
Source text: (§1) The cytotoxic effect of peptides SEQ ID NO: 2, SEQ ID NO: 3, SEQ ID NO: 6, and SEQ ID NO: 9, was studied by MTT assay which is based on the principle of uptake of MTT [3-[4,5-dimethylthiazol-2-yl]-2,5-diphenyl tetrazolium bromide], a tetrazolium salt by the metabolically active cells where it is metabolized by active mitochondria into a blue colored formazan product which can be read spectrophotometrically. Briefly, tumor cells PTC (primary human colon cancer cell line), KB (Oral squamous), U87MG (Glioblastoma), HBL100 (Breast), HeP2 (Laryngeal), ECV304 (Endothelial), PA-1 (Ovary) and L132 (Lung) were incubated with the peptide analogs for 48 hours at 37°C in a 96-well culture plate, followed by the addition of 100 µg MTT and further incubation of 1 hour. The formazan crystals formed inside the cells were dissolved with a detergent comprising 10% Sodium dodecyl sulfate and 0.01 N HCl and optical density read on a multiscan ELISA reader. The optical density was directly proportional to the number of proliferating and metabolically active cells.

KB (Oral squamous) = assay: MTT cytotoxicity assay, KB cells; format: cell-based; conditions: 48 hours
Source text: as §1

U87MG (Glioblastoma) = assay: MTT cytotoxicity assay, U87MG cells; format: cell-based; conditions: 48 hours
Source text: as §1

HBL100 (Breast) = assay: MTT cytotoxicity assay, HBL100 cells; format: cell-based; conditions: 48 hours
Source text: as §1

HeP2 (Laryngeal) = assay: MTT cytotoxicity assay, HeP2 cells; format: cell-based; conditions: 48 hours
Source text: as §1

L132 (Lung) = assay: MTT cytotoxicity assay, L132 cells; format: cell-based; conditions: 48 hours
Source text: as §1

PA-1 (Ovary) = assay: MTT cytotoxicity assay, PA-1 cells; format: cell-based; conditions: 48 hours
Source text: as §1

ECV304 (Endothelial) = assay: MTT cytotoxicity assay, ECV304 cells; format: cell-based; conditions: 48 hours
Source text: as §1

[2] = tested on: human colon adenocarcinoma (PTC) xenografts; assay: In vivo antitumor activity on primary tumor (colon) xenografted mice; design: species or system Balb/c athymic mice; conditions: for tumor volumes, Avg: average of three animals; for tumor volumes of individual tumor bearing animals: individual animals (IV, V, VI for SEQ ID NO: 2; I, II, III for SEQ ID NO: 3)
Experimental: The antitumor activity of SEQ ID NO:2 and SEQ ID NO:3 was studied in human colon adenocarcinoma (PTC) xenografts in nude mice. PTC tumor xenografts were grown in Balb/c athymic mice by subcutaneous inoculation of a single cell suspension of PTC cells (15 X10^6 cells/ 100µl). The tumor bearing animals were divided into 3 groups of three animals each including one group comprising untreated control animals. Treatment with novel somatostatin analogs was initiated when the average tumor volumes, as measured using a vernier caliper, were between 400-800 mm^3. Solutions of SEQ ID NO:2 and SEQ ID NO:3 were prepared at a concentration of 85 µg/ml and intravenously administered to the assigned group of tumor bearing animals at a dose of 8.5 µg/100 µl twice a day so that the total dose of […] was administered to each animal. The treatment was continued for a period of 10 days.
The antitumor activity of the compounds was monitored by measuring tumor volumes every fourth day using the formula W*W*L*.04 (W = smaller diameter, L = larger diameter). The percentage inhibition of tumor growth was calculated using the formula (1-tumor volume-treated/tumor volume control)* 100.

[3] = day 9, intravenously 8.5 µg/100 µl twice a day, 10 days
[4] = day 13, intravenously 8.5 µg/100 µl twice a day, 10 days
[5] = day 18, intravenously 8.5 µg/100 µl twice a day, 10 days
[6] = day 21, intravenously 8.5 µg/100 µl twice a day, 10 days

Substance “D-Phe-Cys-Tyr-D-Trp-Lys-Ac5c-Pen-Thr-NH2 [SEQ ID NO: 6]” has a Percentage cytotoxicity ([1]; 1nM) of 12±1.5%, a Percentage cytotoxicity ([1]; 10 nM) of 11 ± 7.1% and a Percentage cytotoxicity ([1]; 1µM) of 9 ± 2.1%. It also gave a Percentage cytotoxicity ([1]; 100n M) of 8 ± 5.2%, a Percentage cytotoxicity (KB (Oral squamous); 1nM) of 28.0 ± 1.2% and a Percentage cytotoxicity (KB (Oral squamous); 10 nM) of 23.0 ± 4.8%. The Percentage cytotoxicity (KB (Oral squamous); 1µM) was 12.9 ± 1.1%, the Percentage cytotoxicity (KB (Oral squamous); 100n M) was 19.0 ± 5.2% and the Percentage cytotoxicity (U87MG (Glioblastoma); 1nM) was 39.0 ± 3.5%. For the same substance, the Percentage cytotoxicity (U87MG (Glioblastoma); 10 nM) was 40.4 ± 2.4%, the Percentage cytotoxicity (U87MG (Glioblastoma); 1µM) was 39.5 ± 1.2% and the Percentage cytotoxicity (U87MG (Glioblastoma); 100n M) was 42.9 ± 1.4%. It also gave a Percentage cytotoxicity (HBL100 (Breast); 1nM) of 15.7 ± 4.5%, a Percentage cytotoxicity (HBL100 (Breast); 10 nM) of 14.5 ± 2.8% and a Percentage cytotoxicity (HBL100 (Breast); 1µM) of 8.0 ± 1.4%. It also gave a Percentage cytotoxicity (HBL100 (Breast); 100n M) of 12.6 ± 3.2%, a Percentage cytotoxicity (HeP2 (Laryngeal); 1nM) of 8.0 ± 3.6% and a Percentage cytotoxicity (HeP2 (Laryngeal); 10 nM) of 14.8 ± 4.4%. It also gave a Percentage cytotoxicity (HeP2 (Laryngeal); 1µM) of 10.6 ± 2.4%, a Percentage cytotoxicity (HeP2 (Laryngeal); 100n M) of 11.0 ± 2.5% and a Percentage cytotoxicity (L132 (Lung); 1nM) of 14.9 ± 1.2%. The Percentage cytotoxicity (L132 (Lung); 10 nM) was 25.7 ± 4.8%, the Percentage cytotoxicity (L132 (Lung); 1µM) was 13.7 ± 5.8% and the Percentage cytotoxicity (L132 (Lung); 100n M) was 22.9 ± 2.6%. For the same substance, the Percentage cytotoxicity (PA-1 (Ovary); 1nM) was 19.4 ± 1.0%, the Percentage cytotoxicity (PA-1 (Ovary); 10 nM) was 25.9 ± 1.4% and the Percentage cytotoxicity (PA-1 (Ovary); 1µM) was 8.0 ± 3.3%. It also gave a Percentage cytotoxicity (PA-1 (Ovary); 100n M) of 22.6 ± 2.2%, a Percentage cytotoxicity (ECV304 (Endothelial); 1nM) of 18.9 ± 3.9% and a Percentage cytotoxicity (ECV304 (Endothelial); 10 nM) of 24.9 ± 3.8%. It also gave a Percentage cytotoxicity (ECV304 (Endothelial); 1µM) of 7.9 ± 1.6% and a Percentage cytotoxicity (ECV304 (Endothelial); 100n M) of 13.9 ± 2.9%.

“D-Phe-Cys-Tyr-D-Trp-Orn-Ac5c-Pen-Thr-NH2 [SEQ ID NO: 3]” showed a Percentage cytotoxicity ([1]; 1nM) of 15 ± 1.5%, a Percentage cytotoxicity ([1]; 10 nM) of 11 ± 0.8% and a Percentage cytotoxicity ([1]; 1µM) of 13 ± 2.3%. It also gave a Percentage cytotoxicity ([1]; 100n M) of 13 ± 1.3%, a Percentage cytotoxicity (KB (Oral squamous); 1nM) of 29.8 ± 1.2% and a Percentage cytotoxicity (KB (Oral squamous); 10 nM) of 25.0 ± 4.6%. The Percentage cytotoxicity (KB (Oral squamous); 1µM) was 17.9 ± 1.3%, the Percentage cytotoxicity (KB (Oral squamous); 100n M) was 19.4 ± 5.2% and the Percentage cytotoxicity (U87MG (Glioblastoma); 1nM) was 44.2 ± 3.5%. The Percentage cytotoxicity (U87MG (Glioblastoma); 10 nM) was 45.0 ± 2.4%, the Percentage cytotoxicity (U87MG (Glioblastoma); 1µM) was 28.9 ± 1.2% and the Percentage cytotoxicity (U87MG (Glioblastoma); 100n M) was 42.4 ± 1.4%. For the same substance, the Percentage cytotoxicity (HBL100 (Breast); 1nM) was 14.6 ± 4.5%, the Percentage cytotoxicity (HBL100 (Breast); 10 nM) was 17.5 ± 2.8% and the Percentage cytotoxicity (HBL100 (Breast); 1µM) was 10.6 ± 1.4%. The Percentage cytotoxicity (HBL100 (Breast); 100n M) was 11.8±3.2%, the Percentage cytotoxicity (HeP2 (Laryngeal); 1nM) was 13.9 ± 3.6% and the Percentage cytotoxicity (HeP2 (Laryngeal); 10 nM) was 26.8 ± 4.4%. For the same substance, the Percentage cytotoxicity (HeP2 (Laryngeal); 1µM) was 10.0 ± 2.4%, the Percentage cytotoxicity (HeP2 (Laryngeal); 100n M) was 25.8 ± 2.5% and the Percentage cytotoxicity (L132 (Lung); 1nM) was 19.0 ± 2.2%. For the same substance, the Percentage cytotoxicity (L132 (Lung); 10 nM) was 28.6 ± 4.2%, the Percentage cytotoxicity (L132 (Lung); 1µM) was 19.8 ± 5.5% and the Percentage cytotoxicity (L132 (Lung); 100n M) was 25.9 ± 2.6%. For the same substance, the Percentage cytotoxicity (PA-1 (Ovary); 1nM) was 29.5 ± 1.0%, the Percentage cytotoxicity (PA-1 (Ovary); 10 nM) was 39.5 ± 3.4% and the Percentage cytotoxicity (PA-1 (Ovary); 1µM) was 19.5 ± 3.3%. For the same substance, the Percentage cytotoxicity (PA-1 (Ovary); 100n M) was 38.5 ± 2.2%, the Percentage cytotoxicity (ECV304 (Endothelial); 1nM) was 13.9 ± 3.9% and the Percentage cytotoxicity (ECV304 (Endothelial); 10 nM) was 23.9 ± 1.3%. The Percentage cytotoxicity (ECV304 (Endothelial); 1µM) was 14.9 ± 1.6%, the Percentage cytotoxicity (ECV304 (Endothelial); 100n M) was 15.9 ± 2.9% and the “tumor volumes, Avg” value ([2]; day 0, before treatment) was 0 mm^3. The “tumor volumes of individual tumor bearing animals” value ([2]; day 0, before treatment) was 0 mm^3, the “tumor volumes, Avg” value [2, 3] was 552 mm^3 and the “tumor volumes of individual tumor bearing animals” value [2, 3] was 560 mm^3 and 774 mm^3 and 324 mm^3. For the same substance, the “tumor volumes, Avg” value [2, 4] was 1758 mm^3, the “tumor volumes of individual tumor bearing animals” value [2, 4] was 1946 mm^3 and 1800 mm^3 and 1530 mm^3 and the “tumor volumes, Avg” value [2, 5] was 3674 mm^3. The “tumor volumes of individual tumor bearing animals” value [2, 5] was 3177 mm^3 and 3610 mm^3 and 4234 mm^3, the “percentage inhibition of tumor growth” value ([2]; day 21, as compared to controls, (1-tumor volume-treated/tumor volume control)* 100, intravenously 8.5 µg/100 µl twice a day, 10 days) was 54.7% and the “tumor volumes, Avg” value [2, 6] was 4080 mm^3. The “tumor volumes of individual tumor bearing animals” value [2, 6] was 0 mm^3 and 4939 mm^3 and 7301 mm^3.

Substance “D-Phe-Cys-Tyr-D-Trp-Orn-Aib-Pen-Thr-NH2 [SEQ ID NO: 9]” has a Percentage cytotoxicity (KB (Oral squamous); 1nM) of 28.0 ± 1.6%, a Percentage cytotoxicity (KB (Oral squamous); 10 nM) of 27.0 ± 4.8% and a Percentage cytotoxicity (KB (Oral squamous); 1µM) of 12.0 ± 1.2%. It also gave a Percentage cytotoxicity (KB (Oral squamous); 100n M) of 18.0 ± 5.2%, a Percentage cytotoxicity (U87MG (Glioblastoma); 1nM) of 13.9 ± 2.5% and a Percentage cytotoxicity (U87MG (Glioblastoma); 10 nM) of 29.7 ± 2.4%. It also gave a Percentage cytotoxicity (U87MG (Glioblastoma); 1µM) of 42.9 ± 1.2%, a Percentage cytotoxicity (U87MG (Glioblastoma); 100n M) of 53.3 ± 1.4% and a Percentage cytotoxicity (HBL100 (Breast); 1nM) of 26.9 ± 2.6%. It also gave a Percentage cytotoxicity (HBL100 (Breast); 10 nM) of 23.9 ± 4.4%, a Percentage cytotoxicity (HBL100 (Breast); 1µM) of 7.9 ± 1.2% and a Percentage cytotoxicity (HBL100 (Breast); 100n M) of 14.9 ± 2.2%. It also gave a Percentage cytotoxicity (HeP2 (Laryngeal); 1nM) of 15.6 ± 3.6%, a Percentage cytotoxicity (HeP2 (Laryngeal); 10 nM) of 21.4 ± 4.4% and a Percentage cytotoxicity (HeP2 (Laryngeal); 1µM) of 19.9 ± 2.4%. The Percentage cytotoxicity (HeP2 (Laryngeal); 100n M) was 27.9 ± 2.5%, the Percentage cytotoxicity (L132 (Lung); 1nM) was 14.9 ± 2.6% and the Percentage cytotoxicity (L132 (Lung); 10 nM) was 26.1 ± 4.8%. The Percentage cytotoxicity (L132 (Lung); 1µM) was 12.9 ± 1.8%, the Percentage cytotoxicity (L132 (Lung); 100n M) was 22.8 ± 2.6% and the Percentage cytotoxicity (PA-1 (Ovary); 1nM) was 4.6 ± 1.0%. It also gave a Percentage cytotoxicity (PA-1 (Ovary); 10 nM) of 12.8 ± 1.4%, a Percentage cytotoxicity (PA-1 (Ovary); 1µM) of 16.6 ± 3.1% and a Percentage cytotoxicity (PA-1 (Ovary); 100n M) of 22.7 ± 2.2%. For the same substance, the Percentage cytotoxicity (ECV304 (Endothelial); 1nM) was 18.0 ± 2.9%, the Percentage cytotoxicity (ECV304 (Endothelial); 10 nM) was 23.9 ± 3.1% and the Percentage cytotoxicity (ECV304 (Endothelial); 1µM) was 12.9 ± 1.6%. It also gave a Percentage cytotoxicity (ECV304 (Endothelial); 100n M) of 19.9 ± 2.6%.
